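Grown in 96-well plates, cells were treated for 48 hours with each compound at five concentrations. Insufficient inhibition: endpoint recorded as highest concentration tested. Abbreviation: GI50, concentration required for 50% inhibition of growth.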 Calls of active or inactive are those of the source. Cut-off read from the data, not from the text of the source: active = GI50 up to about 1.1 µM and inactive = higher.
Assays:
Experiment in all cases: DTP human tumour cell line panel, 48 h
NCI-H226 = tested on: NCI-H226
HCC 2998 = tested on: HCC 2998
SNB-78 = tested on: SNB-78
UO-31 = tested on: UO-31
RPMI-8226 = tested on: RPMI-8226
NCI-H23 = tested on: NCI-H23
HCT-15 = tested on: HCT-15
SNB-75 = tested on: SNB-75
UACC-257 = tested on: UACC-257
U-251 = tested on: U-251
M14 = tested on: M14
HOP-18 = tested on: HOP-18
CCRF-CEM = tested on: CCRF-CEM
MOLT-4 = tested on: MOLT-4
A549 = tested on: A549
KM-20L2 = tested on: KM-20L2
DMS-273 = tested on: DMS-273
LXFL 529 = tested on: LXFL 529
HT-29 = tested on: HT-29
SN12C = tested on: SN12C
DMS-114 = tested on: DMS-114
A498 = tested on: A498
SF-539 = tested on: SF-539
SF-268 = tested on: SF-268
Malme-3M = tested on: Malme-3M
COLO 205 = tested on: COLO 205
HOP-92 = tested on: HOP-92
HL-60 = tested on: HL-60
ACHN = tested on: ACHN
OVCAR-5 = tested on: OVCAR-5
M19-MEL = tested on: M19-MEL
786-0 = tested on: 786-0
KM12 = tested on: KM12
SF-295 = tested on: SF-295
SK-MEL-28 = tested on: SK-MEL-28
IGROV-1 = tested on: IGROV-1
TK-10 = tested on: TK-10
OVCAR-4 = tested on: OVCAR-4
RXF 393 = tested on: RXF 393
DLD-1 = tested on: DLD-1
SK-OV-3 = tested on: SK-OV-3
OVCAR-8 = tested on: OVCAR-8
NCI-H522 = tested on: NCI-H522
EKVX = tested on: EKVX
CAKI-1 = tested on: CAKI-1
OVCAR-3 = tested on: OVCAR-3
LOX IMVI = tested on: LOX IMVI
XF498 = tested on: XF498
K562 = tested on: K562
SNB-19 = tested on: SNB-19
SK-MEL-2 = tested on: SK-MEL-2
NCI-H460 = tested on: NCI-H460
HCT-116 = tested on: HCT-116
UACC-62 = tested on: UACC-62
HOP-62 = tested on: HOP-62
SK-MEL-5 = tested on: SK-MEL-5
SR = tested on: SR
SW-620 = tested on: SW-620
RXF 631 = tested on: RXF 631

`COc1cccc(NC(=O)C(C)(C)C)c1SSc1c(NC(=O)C(C)(C)C)cccc1OC` was tested, and the GI50 (NCI-H226) was > 53.8 µM (inactive), the GI50 (HCC 2998) was > 69.3 µM (inactive) and the GI50 (SNB-78) was 22.3 µM (inactive). The GI50 (UO-31) was 31.5 µM (inactive), the GI50 (RPMI-8226) was 5.78 µM (inactive) and the GI50 (NCI-H23) was 35 µM (inactive). For the same compound, the GI50 (HCT-15) was 20 µM, the GI50 (SNB-75) was 40.6 µM (inactive) and the GI50 (UACC-257) was 22.7 µM (inactive). The GI50 (U-251) was 17.3 µM (inactive), the GI50 (M14) was 17.5 µM (inactive) and the GI50 (HOP-18) was > 69.7 µM (inactive). For the same compound, the GI50 (CCRF-CEM) was 17.1 µM (inactive), the GI50 (MOLT-4) was 17.7 µM (inactive) and the GI50 (A549) was 44.9 µM (inactive). The GI50 (KM-20L2) was 98.4 µM (inactive), the GI50 (DMS-273) was 96.8 µM (inactive) and the GI50 (LXFL 529) was 15.8 µM (inactive). For the same compound, the GI50 (HT-29) was 27.3 µM (inactive), the GI50 (SN12C) was 24.2 µM (inactive) and the GI50 (DMS-114) was > 10 µM (inactive). For the same compound, the GI50 (A498) was > 100 µM (inactive), the GI50 (SF-539) was 20.8 µM (inactive) and the GI50 (SF-268) was 18.1 µM (inactive). For the same compound, the GI50 (Malme-3M) was 33.7 µM (inactive), the GI50 (COLO 205) was 26.9 µM (inactive) and the GI50 (HOP-92) was 36.1 µM (inactive). For the same compound, the GI50 (HL-60) was 20.3 µM (inactive), the GI50 (ACHN) was 33.5 µM (inactive) and the GI50 (OVCAR-5) was 26.7 µM (inactive). For the same compound, the GI50 (M19-MEL) was 35.2 µM (inactive), the GI50 (786-0) was 21.6 µM (inactive) and the GI50 (KM12) was 26.9 µM (inactive). For the same compound, the GI50 (SF-295) was 36.9 µM (inactive), the GI50 (SK-MEL-28) was 32.7 µM (inactive) and the GI50 (IGROV-1) was > 81.1 µM (inactive). The GI50 (TK-10) was > 100 µM (inactive), the GI50 (OVCAR-4) was 22.8 µM (inactive) and the GI50 (RXF 393) was 20.3 µM (inactive). For the same compound, the GI50 (DLD-1) was > 43.7 µM (inactive), the GI50 (SK-OV-3) was > 83.4 µM (inactive) and the GI50 (OVCAR-8) was 19.3 µM (inactive). For the same compound, the GI50 (NCI-H522) was 14.2 µM (inactive), the GI50 (EKVX) was 64.1 µM (inactive) and the GI50 (CAKI-1) was > 42.5 µM (inactive). For the same compound, the GI50 (OVCAR-3) was 37.9 µM (inactive), the GI50 (LOX IMVI) was 15.4 µM (inactive) and the GI50 (XF498) was 15.2 µM (inactive). For the same compound, the GI50 (K562) was 22.9 µM (inactive), the GI50 (SNB-19) was 59 µM (inactive) and the GI50 (SK-MEL-2) was 48.3 µM (inactive). The GI50 (NCI-H460) was 60.4 µM (inactive), the GI50 (HCT-116) was 22.4 µM (inactive) and the GI50 (UACC-62) was 19.3 µM (inactive). The GI50 (HOP-62) was > 100 µM (inactive), the GI50 (SK-MEL-5) was 44.1 µM (inactive) and the GI50 (SR) was 19.2 µM (inactive). The GI50 (SW-620) was 18.2 µM (inactive).
In the case of `Cn1c2c(c3ccccc31)C1C(=O)N(c3ccccc3)C(=O)C1CC2` (configuration not stated), the GI50 (NCI-H226) is reported as 85.5 µM (inactive), the GI50 (HCC 2998) is reported as > 303 µM (inactive) and the GI50 (RPMI-8226) is reported as > 303 µM (inactive). The GI50 (NCI-H23) was > 303 µM (inactive), the GI50 (HCT-15) was > 303 µM and the GI50 (UACC-257) was > 303 µM (inactive). The GI50 (U-251) was > 303 µM (inactive), the GI50 (CCRF-CEM) was > 303 µM (inactive) and the GI50 (MOLT-4) was > 303 µM (inactive). The GI50 (A549) was > 303 µM (inactive), the GI50 (KM-20L2) was > 303 µM (inactive) and the GI50 (DMS-273) was > 303 µM (inactive). For the same compound, the GI50 (LXFL 529) was > 303 µM (inactive), the GI50 (HT-29) was > 303 µM (inactive) and the GI50 (SN12C) was > 303 µM (inactive). For the same compound, the GI50 (DMS-114) was > 303 µM (inactive), the GI50 (SF-539) was > 303 µM (inactive) and the GI50 (SF-268) was > 303 µM (inactive). For the same compound, the GI50 (Malme-3M) was > 303 µM (inactive), the GI50 (COLO 205) was > 303 µM (inactive) and the GI50 (HOP-92) was > 303 µM (inactive). The GI50 (HL-60) was > 303 µM (inactive), the GI50 (RXF 631) was > 303 µM (inactive) and the GI50 (ACHN) was > 303 µM (inactive). For the same compound, the GI50 (786-0) was > 303 µM (inactive), the GI50 (KM12) was > 303 µM (inactive) and the GI50 (SF-295) was > 303 µM (inactive). For the same compound, the GI50 (SK-MEL-28) was > 303 µM (inactive), the GI50 (IGROV-1) was > 303 µM (inactive) and the GI50 (TK-10) was > 303 µM (inactive). The GI50 (RXF 393) was > 303 µM (inactive), the GI50 (DLD-1) was > 303 µM (inactive) and the GI50 (SK-OV-3) was > 303 µM (inactive). The GI50 (OVCAR-8) was > 303 µM (inactive), the GI50 (NCI-H522) was 243 µM (inactive) and the GI50 (EKVX) was > 303 µM (inactive). The GI50 (CAKI-1) was > 303 µM (inactive), the GI50 (OVCAR-3) was 123 µM (inactive) and the GI50 (LOX IMVI) was > 303 µM (inactive). For the same compound, the GI50 (K562) was > 303 µM (inactive), the GI50 (SNB-19) was 111 µM (inactive) and the GI50 (SK-MEL-2) was > 303 µM (inactive). For the same compound, the GI50 (NCI-H460) was > 303 µM (inactive), the GI50 (HCT-116) was 294 µM (inactive) and the GI50 (UACC-62) was > 303 µM (inactive). The GI50 (HOP-62) was > 303 µM (inactive), the GI50 (SK-MEL-5) was > 303 µM (inactive) and the GI50 (SR) was > 303 µM (inactive). The GI50 (SW-620) was > 303 µM (inactive).

From ChEMBL document CHEMBL1201862, “PubChem BioAssay data set” (2004)
